# Results reported in PMC3466204 (PLoS ONE, 2012).
# Values joined by “and” are separate entries in the source; they are usually repeats but may differ in a detail not shown here. Equal values may be shown once. Ends that are not written are not given here.
# Key:
# C. sakazakii DPC 6440 [1] = assay: Broth MIC, Gram negative; format: cell-based, Cronobacter sakazakii; conditions: cells washed in 10 mM SPB pH 7.4, 2×10^5 CFU/mL, 2 h RT with peptide, then double strength LB, RT overnight, mean of triplicate assays
# Procedure: (§1) Minimum inhibitory concentration determinations for Gram negative strains were carried out in triplicate in 96 well microtitre plates. Briefly, bacteria (E. coli, C. sakazakii and Salmonella) grown to mid-logarithmic phase were harvested by centrifugation, washed with 10 mM SPB at pH 7.4, and diluted to 2×10^5 colony-forming units (CFU)/mL in SPB. Nisin and nisin derivative peptides were resuspended in sterile HPLC water and 50 µL aliquots were added to wells containing 50 µL of 2×10^5 CFU of bacteria. Plates were incubated at RT for two hours with agitation. Double strength Luria–Bertani (LB) broth (100 µL) was added and the plates were incubated at RT overnight, the MIC was taken as the lowest concentration at which growth was inhibited.
# E. coli 0157-H7 [2] = assay: Broth MIC, Gram negative; format: cell-based; conditions: cells washed in 10 mM SPB pH 7.4, 2×10^5 CFU/mL, 2 h RT with peptide, then double strength LB, RT overnight, mean of triplicate assays
# Procedure: as §1
# [3] = system: Salmonella enterica serovar Typhimurium UK1; assay: Broth MIC, Gram negative; format: cell-based; conditions: cells washed in 10 mM SPB pH 7.4, 2×10^5 CFU/mL, 2 h RT with peptide, then double strength LB, RT overnight, mean of triplicate assays
# Procedure: as §1
# B. cereus DPC 6089 = assay: Broth MIC, Gram positive; format: cell-based, Bacillus cereus; conditions: broth microtitre, BSA pre-treated plates, 10^5 cfu ml^−1, 2-fold dilutions from 10 µM, 16 h 37°C, purified peptide, mean of triplicate assays
# Procedure: (§2) Minimum inhibitory concentration determinations for Gram positive organisms were carried out in triplicate in microtitre plates (Sarstedt). 96 well microtitre plates were pre-treated with bovine serum albumin (BSA) prior to addition of the peptides. Briefly, to each well of the microtitre plate 200 µL of phosphate buffered saline (PBS) containing 1% (w/v) bovine serum albumin (PBS/BSA) was added and incubated at 37°C for 30 min. The wells were washed with 200 µL PBS and allowed to dry. Target strains were grown overnight in the appropriate conditions and medium, subcultured into fresh broth and allowed to grow to an OD600 of ∼0.5, diluted to a final concentration of 10^5 cfu ml^−1 in a volume of 0.2 ml. Wild type nisin and nisin mutant peptides were adjusted to a 10 µM (S. mitis, B. cereus), 7.5 µM (L. monocytogenes), 5 µM (hVISA) 2.5 µM (MRSA, E. durans), or 500 nM (L. lactis strains) starting concentration and 2-fold serial dilutions of each peptide were added to the target strain.
# B. cereus DPC 6088 = assay: Broth MIC, Gram positive; format: cell-based, Bacillus cereus; conditions: broth microtitre, BSA pre-treated plates, 10^5 cfu ml^−1, 2-fold dilutions from 10 µM, 16 h 37°C, purified peptide, mean of triplicate assays
# Procedure: as §2
# S. mitis UCC5000 = assay: Broth MIC, Gram positive; format: cell-based, Streptococcus mitis; conditions: broth microtitre, BSA pre-treated plates, 10^5 cfu ml^−1, 2-fold dilutions from 10 µM, 16 h 37°C, purified peptide, mean of triplicate assays
# Procedure: as §2
# S. aureus RF122 = assay: Broth MIC, Gram positive; format: cell-based; conditions: broth microtitre, BSA pre-treated plates, 10^5 cfu ml^−1, 2-fold dilutions, 16 h 37°C, purified peptide, mean of triplicate assays
# Procedure: as §2
# L. lactis HP = assay: Broth MIC, Gram positive; format: cell-based; conditions: broth microtitre, BSA pre-treated plates, 10^5 cfu ml^−1, 2-fold dilutions from 500 nM, 16 h, purified peptide, mean of triplicate assays
# Procedure: as §2
# C. sakazakii DPC 6440 [4] = assay: Agarose gel diffusion assay, purified peptide; format: cell-based, Cronobacter sakazakii; conditions: purified peptide 60 µM; for Zone of inhibition, agarose gel diffusion: C. sakazakii DPC 6440, mean of triplicate assays; for Zone as % wt: C. sakazakii DPC 6440, relative to nisin A
# Procedure: (§3) Agarose-based deferred antagonism assays were carried out as follows: GM17/LB (0.03%) underlay was prepared with 10 mM sodium phosphate buffer (SPB) at pH 7.4 to which was added agarose (1% w/v agarose), autoclaved and cooled to 50°C. Bacteria grown to mid-logarithmic phase were harvested by centrifugation and washed with 10 mM SPB at pH 7.4. Bacteria were then added to 15 mls cooled underlay medium to reach a concentration of 2×10^7 colony-forming units (CFU)/mL. The inoculated medium was rapidly transferred into sterile Petri plates, allowed to solidify and dried. Wells (4.6 mm in diameter) were then made in the seeded plates. 10 µl volumes of cell-free supernatant from overnight nisin derivative producing cultures or resuspended purified peptides were then added to the wells and the plates incubated at 30°C (L. lactis) or 37°C (Gram positive strains) or RT (Gram negative strains) for 3 hours. Polymyxin B (Sigma Aldrich) was used at a concentration of 20 µg/ml. The plates were then overlaid with 15 mls of autoclaved double strength GM17 (L. lactis) or LB (Gram negatives) agarose (1% w/v agarose) overlay medium precooled to 50°C. The plates were then incubated overnight at the relevant temperature.
# E. durans 5133 = assay: Broth MIC, Gram positive; format: cell-based, Enterococcus durans; conditions: broth microtitre, BSA pre-treated plates, 10^5 cfu ml^−1, 2-fold dilutions from 2.5 µM, 16 h 37°C, purified peptide, mean of triplicate assays
# Procedure: as §2
# E. coli 0157-H7 [5] = assay: Agarose gel diffusion assay, purified peptide; format: cell-based; conditions: purified peptide 60 µM; for Zone of inhibition, agarose gel diffusion: E. coli 0157-H7, mean of triplicate assays; for Zone as % wt: E. coli 0157-H7, relative to nisin A
# Procedure: as §3
# [6] = system: Salmonella enterica serovar Typhimurium UK1; assay: Agarose gel diffusion assay, purified peptide; format: cell-based; conditions: purified peptide 60 µM; for Zone of inhibition, agarose gel diffusion: Salmonella Typhimurium UK1, mean of triplicate assays; for Zone as % wt: Salmonella Typhimurium UK1, relative to nisin A
# Procedure: as §3
# Lactococcus lactis HP = assay: Agarose-based assay of cell-free supernatants of S29X producing strains; conditions: for Zone Diameter (mm): agarose (1%) GM17 assay, 10 µl cell-free supernatant of overnight producing culture in 4.6 mm wells, L. lactis HP, 30°C; for % difference (zone relative to wild type): agarose assay of supernatants against L. lactis HP, wild type serine = 100
# Procedure: as §3
# L. monocytogenes LO28 = assay: Broth MIC, Gram positive; format: cell-based; conditions: broth microtitre, BSA pre-treated plates, 10^5 cfu ml^−1, 2-fold dilutions from 7.5 µM, 16 h 37°C, purified peptide, mean of triplicate assays
# Procedure: as §2
# L. monocytogenes 10403S = assay: Broth MIC, Gram positive; format: cell-based; conditions: broth microtitre, BSA pre-treated plates, 10^5 cfu ml^−1, 2-fold dilutions from 7.5 µM, 16 h 37°C, purified peptide, mean of triplicate assays
# Procedure: as §2
# [7] = system: ST 528 (Methicillin resistant S. aureus); assay: Broth MIC, Gram positive; format: cell-based; conditions: broth microtitre, BSA pre-treated plates, 10^5 cfu ml^−1, 2-fold dilutions from 2.5 µM, 16 h 37°C, purified peptide, mean of triplicate assays
# Procedure: as §2
# L. lactis MG1363 = assay: Broth MIC, Gram positive; format: cell-based; conditions: broth microtitre, BSA pre-treated plates, 10^5 cfu ml^−1, 2-fold dilutions from 500 nM, 16 h, purified peptide, mean of triplicate assays
# Procedure: as §2
# [8] = system: hVISA 32679 (heterogenous Vancomycin-intermediate S. aureus); assay: Broth MIC, Gram positive; format: cell-based; conditions: broth microtitre, BSA pre-treated plates, 10^5 cfu ml^−1, 2-fold dilutions from 5 µM, 16 h 37°C, purified peptide, mean of triplicate assays
# Procedure: as §2
# [9] = system: ST 530 (Methicillin resistant S. aureus); assay: Broth MIC, Gram positive; format: cell-based; conditions: broth microtitre, BSA pre-treated plates, 10^5 cfu ml^−1, 2-fold dilutions from 2.5 µM, 16 h 37°C, purified peptide, mean of triplicate assays
# Procedure: as §2
substance,measurement,setting,value
"M21K: M21K hinge derivative of nisin A, generated and purified for comparison (ITSISLCTPGCKTGALMGCNKKTATCHCSIHVSK; thioether (positions not given here); not fully specified (residues 2, 5, 33, bridges); UniProt P13068 24-57, looked up, variant M21K)",MIC,C. sakazakii DPC 6440 [1],6.28 mg/L and 1.875 µM
same,MIC,E. coli 0157-H7 [2],25.14 mg/L and 7.5 µM
same,MIC,[3],50.28 mg/L and 15 µM
same,MIC,B. cereus DPC 6089,16.76 mg/L and 5.0 µM
same,MIC,B. cereus DPC 6088,16.76 mg/L and 5.0 µM
same,MIC,S. mitis UCC5000,8.38 mg/L and 2.5 µM
same,MIC,S. aureus RF122,1.04 mg/L and 0.312 µM
same,MIC,L. lactis HP,0.2 mg/L and 0.062 µM
same,"Zone of inhibition, agarose gel diffusion",C. sakazakii DPC 6440 [4],10.51±0.10 mm
same,Zone as % wt,C. sakazakii DPC 6440 [4],108 % wt
same,MIC,E. durans 5133,0.52 mg/L and 0.156 µM
same,"Zone of inhibition, agarose gel diffusion",E. coli 0157-H7 [5],10.80±0.01 mm
same,Zone as % wt,E. coli 0157-H7 [5],110 % wt
same,"Zone of inhibition, agarose gel diffusion",[6],10.75±0.12 mm
same,Zone as % wt,[6],109 % wt
"S29D: bioengineered nisin A derivative, serine 29 replaced by aspartic acid (ITSISLCTPGCKTGALMGCNMKTATCHCDIHVSK; thioether (positions not given here); not fully specified (residues 2, 5, 33, bridges); UniProt P13068 24-57, looked up, variant S29D)",MIC,C. sakazakii DPC 6440 [1],6.28 mg/L and 1.875 µM
same,MIC,E. coli 0157-H7 [2],> 100 mg/L and > 30 µM
same,MIC,[3],> 100 mg/L and > 30 µM
same,Zone Diameter (mm),Lactococcus lactis HP,20.3±0.8 mm
same,% difference (zone relative to wild type),Lactococcus lactis HP,133 (0.006) %
same,MIC,B. cereus DPC 6089,8.38 mg/L and 2.5 µM
same,MIC,B. cereus DPC 6088,16.76 mg/L and 5.0 µM
same,MIC,S. mitis UCC5000,16.76 mg/L and 5.0 µM
same,MIC,L. monocytogenes LO28,12.57 mg/L and 3.75 µM
same,MIC,L. monocytogenes 10403S,12.57 mg/L and 3.75 µM
same,MIC,S. aureus RF122,4.19 mg/L and 1.25 µM
same,MIC,[7],0.26 mg/L and 0.078 µM
same,MIC,L. lactis MG1363,0.4 mg/L and 0.125 µM
same,MIC,[8],4.19 mg/L and 1.25 µM
same,MIC,L. lactis HP,0.05 mg/L and 0.015 µM
same,MIC,[9],0.52 mg/L and 0.156 µM
same,"Zone of inhibition, agarose gel diffusion",C. sakazakii DPC 6440 [4],10.10±0.19 mm
same,Zone as % wt,C. sakazakii DPC 6440 [4],103 % wt
same,MIC,E. durans 5133,0.52 mg/L and 0.156 µM
same,"Zone of inhibition, agarose gel diffusion",E. coli 0157-H7 [5],8.27±0.08 mm
same,Zone as % wt,E. coli 0157-H7 [5],84 % wt
same,"Zone of inhibition, agarose gel diffusion",[6],8.22±0.16 mm
same,Zone as % wt,[6],83 % wt
"S29E: bioengineered nisin A derivative, serine 29 replaced by glutamic acid (ITSISLCTPGCKTGALMGCNMKTATCHCEIHVSK; not fully specified (residues 2, 5, 33, bridges); cysteine pairing not given here; UniProt P13068 24-57, looked up, variant S29E)",MIC,C. sakazakii DPC 6440 [1],12.57 mg/L and 3.75 µM
same,MIC,E. coli 0157-H7 [2],25.14 mg/L and 7.5 µM
same,MIC,[3],50.28 mg/L and 15 µM
same,Zone Diameter (mm),Lactococcus lactis HP,18.6±0.3 mm
same,% difference (zone relative to wild type),Lactococcus lactis HP,122 (0.0004) %
same,MIC,B. cereus DPC 6089,4.19 mg/L and 1.25 µM
same,MIC,B. cereus DPC 6088,4.19 mg/L and 1.25 µM
same,MIC,S. mitis UCC5000,4.19 mg/L
same,MIC,L. monocytogenes LO28,6.28 mg/L and 1.875 µM
same,MIC,L. monocytogenes 10403S,12.57 mg/L and 3.75 µM
same,MIC,S. aureus RF122,2 mg/L and 0.625 µM
same,MIC,[7],0.52 mg/L
same,MIC,L. lactis MG1363,0.8 mg/L and 0.250 µM
same,MIC,[8],4.19 mg/L and 1.25 µM
same,MIC,L. lactis HP,0.05 mg/L and 0.015 µM
same,MIC,[9],0.52 mg/L
same,"Zone of inhibition, agarose gel diffusion",C. sakazakii DPC 6440 [4],7.98±0.29 mm
same,Zone as % wt,C. sakazakii DPC 6440 [4],81 % wt
same,MIC,E. durans 5133,0.52 mg/L and 0.156 µM
same,"Zone of inhibition, agarose gel diffusion",E. coli 0157-H7 [5],10.54±0.19 mm
same,Zone as % wt,E. coli 0157-H7 [5],107 % wt
same,"Zone of inhibition, agarose gel diffusion",[6],10.77±0.07 mm
same,Zone as % wt,[6],109 % wt
